In paper PMC5552351, “Bacteriological profiling of diphenylureas as a novel class of antibiotics against methicillin-resistant Staphylococcus aureus” (PLoS ONE, 2017):

Key:
[1] = system: VRS4; experiment: microbe, parasite or virus in culture; type: cell-based, Staphylococcus aureus; settings: VRS4, compound at ½ × MIC
Method: (§1) CAMHB was inoculated with strain VRS4 or strain VRS10 (5×10^5 CFU/mL), as described previously, with the following modifications. Aliquots ([…]) of the bacterial suspension were divided into micro-centrifuge tubes and compounds 1 or 2 (at ½ × MIC) were introduced into each tube. After 30 minutes of incubation at room temperature, samples from each tube were transferred to a new micro-centrifuge tube, prior to addition of vancomycin (at 128 μg/mL). Plates containing the test agents and bacteria were then incubated at 37 °C for 20–22 hours after which the MIC value was determined. A fold-reduction was calculated by comparing the MIC of vancomycin compared to the MIC of vancomycin given in combination with compounds 1 or 2 (at ½ × MIC).

[2] = system: S. epidermidis NRS101 biofilm; experiment: bacterial CFU inside mature biofilm post-treatment; type: cell-based, Staphylococcus epidermidis; settings: 24 hours
Method: (§2) Compounds 1, 2, and vancomycin were examined for their ability to eradicate mature staphylococcal biofilm using the microtiter dish biofilm formation assay. S. epidermidis NRS101 and S. aureus ATCC 6538 were selected as the test organisms given their ability to form strong adherent biofilm. An overnight culture of bacteria was diluted (1:100 in TSB + 1% glucose) and transferred to a 96-well plate. The plate was incubated for 24 hours at 37 °C in order to form adherent biofilm on the surface of the plate wells. The medium containing the bacterial suspension was removed and the biofilm was washed with sterile PBS to remove planktonic cells. Compounds 1, 2, or vancomycin (from 128 to 1 μg/mL), in triplicate, in TSB were incubated with the biofilm for 24 hours at 37 °C.
(§3) For enumeration of viable CFU inside the biofilm, compounds were removed, wells were washed with sterile PBS, and treated with 0.25% Trypsin-2.21 mM EDTA solution as described elsewhere. The solution containing cells was transferred to a 96-well plate, serially diluted in PBS, and plated on TSA. Plates were incubated at 37 °C for 19 hours before viable CFU were counted. Data are presented as average log10(CFU/mL) of bacteria present in the biofilm post-treatment.

[3] = system: S. epidermidis NRS101 biofilm; experiment: biofilm mass disruption, crystal violet reporter assay; type: cell-based, Staphylococcus epidermidis; settings: even at 128 μg/mL, 24-hour treatment
Method: as §2
(§4) Compounds were subsequently removed. The biofilm was washed with PBS and then stained with 1% (w/v) crystal violet for 40 minutes. The stain was removed and wells were washed with sterile PBS. Wells were next decolorized using 95% ethanol. The optical density of each well at 595 nm was measured using a microplate reader.

[4] = system: S. aureus ATCC 6538 biofilm; experiment: bacterial CFU inside mature biofilm post-treatment; type: cell-based, Staphylococcus aureus; settings: 24 hours
Method: as §2, §3

[5] = system: S. aureus ATCC 6538 biofilm; experiment: biofilm mass disruption, crystal violet reporter assay; type: cell-based, Staphylococcus aureus; settings: all concentrations tested
Method: as §2, §4

[6] = system: human keratinocyte cell line; set-up: method as in PMID 28249208; settings: human keratinocytes; ref [21]; cited from earlier work
[7] = set-up: method as in PMID 28249208; settings: human liver microsomes; ref [21]; cited from earlier work
[8] = system: MRSA; set-up: method as in PMID 28249208; settings: C. elegans; ref [21]; cited from earlier work
[9] = system: Bacillus subtilis; experiment: Bacterial Cytological Profiling (BCP); type: cell-based; settings: two hours, LB-MSM osmotically buffered media, 37 °C
Method: B. subtilis cells were grown in Luria Bertani (LB) medium at 37 °C until the optical density at 600 nm (OD600) was ~0.20. Cells were then left untreated or treated with compound 1 or control antibiotics in the presence of methylsulfonylmethane (MSM), as described previously. After two hours, cells were stained with FM 4−64 (1 μg/mL) to visualize cell membranes; DAPI (1 μg/ml) to visualize DNA, and SYTOX Green (1 μg/mL), a vital stain which is normally excluded from cells with an intact membrane but brightly stains cells that are lysed. Images were collected using a Delta Vision Spectris Deconvolution microscope, as described previously.

[10] = system: S. aureus NRS107 (RN4220); experiment: accumulation of UDP-N-acetylmuramyl pentapeptide (HPLC-MS); type: cell-based, Staphylococcus aureus; settings: 10 × MIC, 30 minutes
Method: The accumulation of UDP-N-acetylmuramyl pentapeptide was detected using a procedure described in a previous study, with the following modifications. S. aureus NRS107 (RN4220), in early logarithmic growth stage (OD600 ~ 0.60), was incubated with 130 μg/mL chloramphenicol for 15 minutes at 37°C. […] Untreated samples served as a negative control. Samples were centrifuged at 10,000 rpm for five minutes, the supernatant discarded, and the pellet re-suspended in sterile deionzined water (1 mL). The pellet was boiled at […] for 30 minutes before samples were chilled on ice for 10 minutes. UDP-N-acetylmuramyl-pentapeptide was measured using an Agilent High Performance Liquid Chromatography coupled to a time-of-flight Mass Spectrometer (HPLC-MS). A Waters XBridge Phenyl (2.1 × 100 mm, 3.5 μm) chromatography column was used, with mobile phases of water, 0.1% formic acid (Buffer A) and acetonitrile, 0.1% formic acid (Buffer B). A gradient of 5–20% Buffer B over 14 minutes was used, with a flow rate of 0.3 mL/min. An electrospray source was used, in positive ionization mode. Extracted Ion Chromatograms (EIC) were generated at a mass-to-charge ratio (m/z) of 1150.3588 (20 ppm window). Mass error for UDP-N-acetylmuramyl-pentapeptide was <1 ppm.

[11] = system: VRS10; experiment: microbe, parasite or virus in culture; type: cell-based, Staphylococcus aureus; settings: VRS10, compound at ½ × MIC
Method: as §1

## C/C(=N\NC(=N)N)c1ccc(NC(=O)Nc2ccc(OC3CCCCCC3)cc2)cc1 [compound 2]
[1]
  Fold re-sensitization of VRSA to vancomycin: 7-fold
[2]; all concentrations tested (from 8 to 128 μg/mL)
  reduction in bacterial CFU within S. epidermidis biofilm: unable to reduce
[3]
  decrease in S. epidermidis biofilm mass: no decrease
[4]; 64 μg/mL
  reduction in bacterial CFU within S. aureus biofilm: 0.8 log10
[4]; 128 μg/mL
  reduction in bacterial CFU within S. aureus biofilm: 1.76 log10
[5]
  change in optical density of S. aureus biofilm (biofilm mass): no change
[6]
  non-toxic up to (concentration): 64 µg/mL
[7]
  intrinsic half-life: exceeded four hours
[8]
  reducing the burden of MRSA in infected worms: superior to vancomycin

## C/C(=N\NC(=N)N)c1ccc(NC(=O)Nc2ccc(OCCC(C)C)cc2)cc1 [compound 1]
[9]
  cytological profile (cell morphology): cell shape defects
[10]
  UDP-N-acetylmuramyl pentapeptide accumulation: notable increase
[11]
  Fold re-sensitization of VRSA to vancomycin: 3-fold
[2]; 64 μg/mL
  reduction in bacterial CFU within S. epidermidis biofilm: 1.0 log10
[2]; 128 μg/mL
  reduction in bacterial CFU within S. epidermidis biofilm: 2.84 log10
[2]; 8, 16, and 32 μg/mL, vs untreated control
  reduction in bacterial CFU within S. epidermidis biofilm: no reduction
[3]
  decrease in S. epidermidis biofilm mass: no decrease
[4]; 64 μg/mL
  reduction in bacterial CFU within S. aureus biofilm: 0.9 log10
[4]; 128 μg/mL
  reduction in bacterial CFU within S. aureus biofilm: 3.0 log10
[5]
  change in optical density of S. aureus biofilm (biofilm mass): no change
[6]
  non-toxic up to (concentration): 32 µg/mL
[7]
  intrinsic half-life: exceeded four hours
